Assay results reported in patent US6153616A, “Triazoles as therapeutic agents for fungal infections” (Synphar Laboratories, Inc., priority 1998, dated 2000).
≈ marks a conversion by molar mass, not a printed value. Like-named read-outs stand apart in the source and are kept apart here.

Assays:
[1] = system: C. glabrata; test: In vitro antifungal activity (minimum inhibitory concentration), C. glabrata; assay type: cell-based; details: Nakaseomyces glabratus, 48 h at 37° C.
Method: (§1) The compounds of the present invention were evaluated in vitro for their antifungal activity and were assessed based on minimum inhibitory concentration of the test compound, i.e. the concentration of the test compound at which growth of particular organism fails to occur. […] The microorganisms used in this test include Candida albicans, C. tropicalis, C. kefyr, C. krusei, C. guilliermondii, C. glabrata, Cryptococcus neoformans, Aspergillus niger and A. fumigatus.

[2] = system: A. niger; test: In vitro antifungal activity (minimum inhibitory concentration), A. niger; assay type: cell-based; details: Aspergillus niger, 48 h at 37° C.
Method: as §1

[3] = system: C. kefyr; test: In vitro antifungal activity (minimum inhibitory concentration), C. kefyr; assay type: cell-based; details: Kluyveromyces marxianus, 48 h at 37° C.
Method: as §1

[4] = system: A. fumigatus; test: In vivo therapeutic efficacy, A. fumigatus systemic infection in mice; details: Aspergillus fumigatus, oral, i.v. and s.c. routes, survival vs control, read-out: Therapeutic efficacy (ED50) in mice systemic infections
Method: (§2) Certain selected compounds were evaluated in-vivo for their antifungal efficacy. Series of doses of test compounds were administered by oral, i.v and s.c. routes to infected mice, i.e mice that are inoculated with a strain of Candida albicans or Aspergillus fumigatus. Efficacy of test compound was determined based on survival of treated mice compared to control. The in vivo efficacy was assessed based on ED50 of the test compound. The following table provides ED50 of certain compounds for systemic infections of C. albicans and A. fumigatus in mice models.

[5] = system: C. guilliermondii; test: In vitro antifungal activity (minimum inhibitory concentration), C. guilliermondii; assay type: cell-based; details: Meyerozyma guilliermondii, 48 h at 37° C.
Method: as §1

[6] = system: C. albicans; test: In vivo therapeutic efficacy, C. albicans systemic infection in mice; details: Candida albicans, oral, i.v. and s.c. routes, survival vs control, read-out: Therapeutic efficacy (ED50) in mice systemic infections
Method: as §2

[7] = system: Candida albicans; test: In vitro antifungal activity (minimum inhibitory concentration), Candida albicans; assay type: cell-based; details: 48 h at 37° C.
Method: as §1

[8] = system: C. tropicalis; test: In vitro antifungal activity (minimum inhibitory concentration), C. tropicalis; assay type: cell-based; details: Candida tropicalis, 48 h at 37° C.
Method: as §1

[9] = system: Saccheromyces cerevisiae; test: In vitro antifungal activity (minimum inhibitory concentration), Saccheromyces cerevisiae; assay type: cell-based
[10] = system: Cryptococcus neoformans; test: In vitro antifungal activity (minimum inhibitory concentration), Cryptococcus neoformans; assay type: cell-based; details: 48 h at 37° C.
Method: as §1

[11] = system: C. krusei; test: In vitro antifungal activity (minimum inhibitory concentration), C. krusei; assay type: cell-based; details: Pichia kudriavzevii, 48 h at 37° C.
Method: as §1

[12] = system: Aspergillus fumigatus; test: In vitro antifungal activity (minimum inhibitory concentration), Aspergillus fumigatus; assay type: cell-based; details: 48 h at 37° C.
Method: as §1

[13] = system: filamentous fungi; details: background; cited from earlier work
[14] = background; cited from earlier work
[15] = background; cited from earlier work; remark: listed apart in the source
[16] = Saccheromyces cerevisiae, 48 h at 37° C., read-out: MIC

Compound | MIC [1] | MIC [2] | MIC [3] | MIC [5] | MIC [7] | MIC [8] | MIC [9, 16] | MIC [10] | MIC [11] | MIC [12] | ED50 [4] | ED50 [6] | activity against filamentous fungi [13] | MIC ([9]; 48 h) | bioavailability [14] | protein binding [15]
CC(C)n1ncn(-c2ccc(N3CCN([C@H](C)[C@](O)(Cn4cncn4)c4ccc(F)cc4F)CC3)cc2)c1=O [Example 41, (2R,3R)-2-(2,4-Difluorophenyl)-3-[4-{4-[2-(2-propyl)-2H-1,2,4-triazol-3-one-4-yl]phenyl}piperazin-1-yl]-1-(1H-1,2,4-triazol-1-yl)butan-2-ol] | 0.78 µg/mL (≈ 1.45 µM) | 3.12 µg/mL (≈ 5.79 µM) | 0.48 µg/mL (≈ 0.891 µM) | 0.048 µg/mL (≈ 0.0891 µM) | 0.09 µg/mL (≈ 0.167 µM) | 0.09 µg/mL (≈ 0.167 µM) | 0.19 µg/mL (≈ 0.353 µM) | 0.48 µg/mL (≈ 0.891 µM) | 1.56 µg/mL (≈ 2.9 µM) | 0.78 µg/mL (≈ 1.45 µM) | 89.3 mg/kg | 8.01 mg/kg |  |  |  | 
CC(O)Cn1ncn(-c2ccc(N3CCN([C@H](C)[C@](O)(Cn4cncn4)c4ccc(F)cc4F)CC3)cc2)c1=O (stereo partly drawn) [Example 42, (2R,3R)-2-(2,4-Difluorophenyl)-3-[4-{4-[2-(2-hydroxypropyl)-2H-1,2,4-triazol-3-one-4-yl]phenyl}piperazin-1-yl]-1-(1H-1,2,4-triazol-1-yl)butan-2-ol] | 12.5 µg/mL (≈ 22.5 µM) | 3.12 µg/mL (≈ 5.63 µM) | 0.048 µg/mL (≈ 0.0865 µM) | 0.09 µg/mL (≈ 0.162 µM) | 0.09 µg/mL (≈ 0.162 µM) | 0.09 µg/mL (≈ 0.162 µM) | 0.39 µg/mL (≈ 0.703 µM) | 0.19 µg/mL (≈ 0.343 µM) | 1.56 µg/mL (≈ 2.81 µM) | 0.39 µg/mL (≈ 0.703 µM) | 71.1 mg/kg | > 90 mg/kg |  |  |  | 
C[C@@H](N1CCN(c2ccc(-n3cnn(Cc4ccc(C(F)(F)F)cc4)c3=O)cc2)CC1)[C@](O)(Cn1cncn1)c1ccc(F)cc1F [Example 43] | 0.78 µg/mL (≈ 1.19 µM) | 0.19 µg/mL (≈ 0.29 µM) | 0.048 µg/mL (≈ 0.0733 µM) | 0.09 µg/mL (≈ 0.137 µM) | 0.048 µg/mL (≈ 0.0733 µM) | 0.048 µg/mL (≈ 0.0733 µM) | 0.09 µg/mL (≈ 0.137 µM) | 0.048 µg/mL (≈ 0.0733 µM) | 0.09 µg/mL (≈ 0.137 µM) | 0.19 µg/mL (≈ 0.29 µM) | 42.3 mg/kg | 1.57 mg/kg |  |  |  | 
C[C@@H](N1CCN(c2ccc(-n3cnn(CC(F)(F)C(F)F)c3=O)cc2)CC1)[C@](O)(Cn1cncn1)c1ccc(F)cc1F [Example 44] | 1.56 µg/mL (≈ 2.56 µM) | 0.19 µg/mL (≈ 0.311 µM) | 0.048 µg/mL (≈ 0.0786 µM) | 0.048 µg/mL (≈ 0.0786 µM) | 0.048 µg/mL (≈ 0.0786 µM) | 0.048 µg/mL (≈ 0.0786 µM) | 0.048 µg/mL (≈ 0.0786 µM) | 0.048 µg/mL (≈ 0.0786 µM) | 0.09 µg/mL (≈ 0.147 µM) | 0.048 µg/mL (≈ 0.0786 µM) |  |  |  |  |  | 
OC(Cn1cncn1)(Cn1cncn1)c1ccc(F)cc1F [Fluconazole, reference compound] | 12.5 µg/mL (≈ 40.8 µM) | > 100 µg/mL | 0.39 µg/mL (≈ 1.27 µM) | 1.56 µg/mL (≈ 5.09 µM) | 0.78 µg/mL (≈ 2.55 µM) | 0.39 µg/mL (≈ 1.27 µM) |  | 1.56 µg/mL (≈ 5.09 µM) | 50 µg/mL (≈ 163 µM) | > 100 µg/mL |  |  | not active against filamentous fungi | 6.25 µg/mL (≈ 20.4 µM) |  | 
CCC(C)n1ncn(-c2ccc(N3CCN(c4ccc(OCC5COC(Cn6cncn6)(c6ccc(Cl)cc6Cl)O5)cc4)CC3)cc2)c1=O (stereo not shown) [Itraconazole, reference compound] | 0.19 µg/mL (≈ 0.269 µM) | 0.39 µg/mL (≈ 0.553 µM) | 0.09 µg/mL (≈ 0.128 µM) | 0.19 µg/mL (≈ 0.269 µM) | 0.09 µg/mL (≈ 0.128 µM) | 0.09 µg/mL (≈ 0.128 µM) | 0.39 µg/mL (≈ 0.553 µM) | 0.39 µg/mL (≈ 0.553 µM) | 0.39 µg/mL (≈ 0.553 µM) | 0.19 µg/mL (≈ 0.269 µM) |  |  | active against filamentous fungi |  | less bioavailability | high protein binding

Continued, in another order:

MIC [1] | MIC [2] | MIC [3] | MIC [5] | MIC [7] | MIC [8] | MIC [9, 16] | MIC [10] | MIC [11] | MIC [12] | Compound | ED50 [4] | ED50 [6] | activity against filamentous fungi [13] | MIC ([9]; 48 h) | bioavailability [14] | protein binding [15]
0.09 µg/mL (≈ 0.159 µM) | 0.78 µg/mL (≈ 1.38 µM) | 0.048 µg/mL (≈ 0.0847 µM) | 0.048 µg/mL (≈ 0.0847 µM) | 0.09 µg/mL (≈ 0.159 µM) | 0.09 µg/mL (≈ 0.159 µM) | 0.19 µg/mL (≈ 0.335 µM) | 0.048 µg/mL (≈ 0.0847 µM) | 0.09 µg/mL (≈ 0.159 µM) | 0.39 µg/mL (≈ 0.688 µM) | CCC(CC)n1ncn(-c2ccc(N3CCN([C@H](C)[C@](O)(Cn4cncn4)c4ccc(F)cc4F)CC3)cc2)c1=O [Example 36] | > 45 mg/kg | 8.01 mg/kg |  |  |  | 
0.39 µg/mL (≈ 0.706 µM) | 0.78 µg/mL (≈ 1.41 µM) | 0.048 µg/mL (≈ 0.0869 µM) | 0.048 µg/mL (≈ 0.0869 µM) | 0.09 µg/mL (≈ 0.163 µM) | 0.048 µg/mL (≈ 0.0869 µM) | 0.09 µg/mL (≈ 0.163 µM) | 0.48 µg/mL (≈ 0.869 µM) | 0.19 µg/mL (≈ 0.344 µM) | 0.39 µg/mL (≈ 0.706 µM) | CCC(C)n1ncn(-c2ccc(N3CCN([C@H](C)[C@](O)(Cn4cncn4)c4ccc(F)cc4F)CC3)cc2)c1=O (stereo partly drawn) [Example 40, (2R,3R)-3-[4-{4-[2-(2-Butyl)-2H-1,2,4-triazol-3-one-4-yl]phenyl}piperazin-1-yl]2-(2,4-difluorophenyl)-1-(1H-1,2,4-triazol-1-yl)butan-2-ol] | 67 mg/kg | 4.68 mg/kg |  |  |  | 
0.39 µg/mL (≈ 0.626 µM) | 0.09 µg/mL (≈ 0.145 µM) | 0.048 µg/mL (≈ 0.0771 µM) | 0.048 µg/mL (≈ 0.0771 µM) | 0.048 µg/mL (≈ 0.0771 µM) | 0.048 µg/mL (≈ 0.0771 µM) | 0.09 µg/mL (≈ 0.145 µM) | 0.048 µg/mL (≈ 0.0771 µM) | 0.19 µg/mL (≈ 0.305 µM) | 0.048 µg/mL (≈ 0.0771 µM) | C[C@@H](N1CCN(c2ccc(-n3cnn(Cc4ccc(F)cc4F)c3=O)cc2)CC1)[C@](O)(Cn1cncn1)c1ccc(F)cc1F [Example 46] | > 45 mg/kg | 56 mg/kg |  |  |  | 
